Measured values as given in the NIST ThermoML archive (doi:10.1021/acs.jced.6b00888).
± gives the expanded uncertainty stated by the source.

Conditions: 101.3 kPa, Liquid, Vibrating tube method

CN(C)CCO [2-(N,N-dimethylamino)ethanol]
Conditions | mass density [kg/m3]
293.15 K | 888.2 ± 5.2
298.15 K | 884 ± 5.2
303.15 K | 879.8 ± 5.2
308.15 K | 875.5 ± 5.2
313.15 K | 871.2 ± 5.2
318.15 K | 866.8 ± 5.2
323.15 K | 862.4 ± 5.2
328.15 K | 858 ± 5.2
333.15 K | 853.5 ± 5.2
338.15 K | 849 ± 5.2
343.15 K | 844.4 ± 5.2
